Here are results for 9 molecules from patent publication US11679108B2, “Aromatic heterocyclic compound, and pharmaceutical composition and use thereof” (GUANGZHOU HENOVCOM BIOSCIENCE CO., LTD., priority 2018, dated 2023).

The target in assay [1] is T1, ATX in human plasma (Homo sapiens, UniProt Q13822).
T1 construct: blank plasma was derived from at least 6 individual people; from tissue; host or cells: human plasma (pooled from at least 6 individuals)
Description: Analysis in vitro: detection of LPA in human plasma for screening activity (LPA 18:2 by LC/MS/MS). The format is biochemical. Particulars: incubated 2 hours at 37° C., LPA 18:2 detected by LC/MS/MS. An outline of the steps:
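Compounds at 0 to 10 μM were incubated for 2 h at 37° C. under 5% CO2 in pooled human plasma (≥6 donors), with endogenous LPC acting as substrate. LPA 18:2 was quantified by LC/MS/MS with an LPA 17:0 internal standard after methanol precipitation. IC50 values came from residual activity relative to compound-free plasma across 8 points of a 3-fold dilution series.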

The target in assay [2] is ATX (Homo sapiens, UniProt Q13822). Description: Analysis in vitro: LPC was used as substrate for screening enzyme activity (Amplex Red fluorescence). The format is biochemical. As to conditions: inhibitory activity against ATX, with LPC as substrate. The gist of the method: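 ATX lysoPLD activity was measured by coupled detection: LPC hydrolysis releases choline, which choline oxidase/HRP convert to an Amplex Red fluorescent signal (ex 530/em 590 nm). The enzyme mix (2 ng/μl ATX, 2 U/ml HRP, 0.2 U/ml choline oxidase) was combined with the substrate mix ([…], 400 μM Amplex Red) and 10-point threefold compound dilutions for 30 min. IC50 was derived from the inhibition ratio.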

On to `CCc1nc2sc(N3CC[C@H](N(C)CC(=O)N4CC(O)C4)C3)nn2c1N(C)c1nc(-c2ccc(F)cc2)c(C#N)s1` [Example 22, (S)-2-{[6-ethyl-2-(3-((2-(3-hydroxyazetidin-1-yl)-2oxoethyl)(methyl)amino)pyrrolidin-1-yl)imidazo[2,1-b][1,3,4]thiadiazol-5-yl](methyl)amino}-4-(4-fluorophenyl)thiazole-5-carbonitrile], for which the IC50 in assay [1] and in assay [2] was 0.01 to 100 nM in each case.
Consider `CCc1nc2sc(N3CCC[C@@H](N(C)CC(=O)N4CC(O)C4)C3)nn2c1N(C)c1nc(-c2ccc(F)cc2)c(C#N)s1` [Example 23, (R)-2-{[6-ethyl-2-(3-((2-(3-hydroxyazetidin-1-yl)-2-oxoethyl)(methyl)amino)piperidin-1-yl)imidazo[2,1-b][1,3,4]thiadiazol-5-yl](methyl)amino}-4-(4-fluorophenyl)thiazole-5-carbonitrile], for which the concentration for half-maximal inhibition (IC50) in assay [1] and in assay [2] was 100 to 500 nM each time.
`CCc1nc2sc(N3CC[C@H](N(C)CC(=O)N4CC(C(=O)O)C4)C3)nn2c1N(C)c1nc(-c2ccc(F)cc2)c(C#N)s1` [Example 45, (5)-1-{2-[(1-(5-((5-cyano-4-(4-fluorophenyl)thiazol-2-yl)(methyl)amino)-6-ethylimidazo[2,1-b][1,3,4]thiadiazol-2-yl}pyrrolidin-3-yl)(methyl)amino]acetyl}azetidine-3-carboxylic acid]: the IC50 in assay [1] fell in the range of 100 to 500 nM; in assay [2], 0.01 to 100 nM.
Turning to `CCc1nc2sc(N3CCCC(N(C)C(N)=O)C3)nn2c1N(C)c1nc(-c2ccc(F)cc2)c(C#N)s1` (stereo not drawn) [Example 15, 1-{1-[5-((5-cyano-4-(4-fluorophenyl)thiazol-2-yl)(methyl)amino)-6-ethylimidazo[2,1-b][1,3,4]thiadiazol-2-yl]piperidin-3-yl}-1-methylurea], the half-maximal inhibitory concentration (IC50) in assay [1] and in assay [2] was 0.01 to 100 nM in each case.
As for `CCc1nc2sc(N3CC[C@@H](N(C)C(=O)N4CC(O)C4)C3)nn2c1N(C)c1nc(-c2ccc(F)cc2)c(C#N)s1` [Example 36, (R)—N-{1-[5-((5-cyano-4-(4-fluorophenyl)thiazol-2-yl)(methyl)amino)-6-ethylimidazo[2,1-b][1,3,4]thiadiazol-2-yl]pyrrolidin-3-yl}-3-hydroxy-N-methylazetidine-1-carboxamide], the half-inhibitory concentration (IC50) in assay [1] fell in the range of 100 to 500 nM; in assay [2], 0.01 to 100 nM.
For the molecule `CCc1nc2sc(N3CC[C@H](N(C)CC(=O)N4CC(C#N)C4)C3)nn2c1N(C)c1nc(-c2ccc(F)cc2)c(C#N)s1` [Example 47, (S)-2-{[2-(3-((2-(3-cyanoazetidin-1-yl)-2-oxoethyl)(methyl)amino)pyrrolidin-1-yl)-6-ethylimidazo[2,1-b][1,3,4]thiadiazol-5-yl](methyl)amino}-4-(4-fluorophenyl)-thiazole-5-carbonitrile], the IC50 in assay [1] and in assay [2] was 0.01 to 100 nM throughout.
Take `CCc1nc2sc(N3CCC(N(C)CC(=O)N4CC(O)C4)C3)nn2c1N(C)c1nc(-c2ccc(F)cc2)c(C#N)s1` (stereo not drawn) [Example 11]: the IC50 in assay [1] and in assay [2] was 0.01 to 100 nM in each case.
As to `CCc1nc2sc(N3CC[C@@H](N(C)CC(=O)N4CC(O)C4)C3)nn2c1N(C)c1nc(-c2ccc(F)cc2)c(C#N)s1` [Example 21, (R)-2-{[6-ethyl-2-(3-((2-(3-hydroxyazetidin-1-yl)-2-oxoethyl)(methyl)amino)pyrrolidin-1-yl)imidazo[2,1-b][1,3,4]thiadiazol-5-yl](methyl)amino}-4-(4-fluorophenyl)thiazole-5-carbonitrile], the 50% inhibitory concentration (IC50) in assay [1] and in assay [2] was 0.01 to 100 nM in each case.
With `CCc1nc2sc(N3CCC(N(C)S(C)(=O)=O)C3)nn2c1N(C)c1nc(-c2ccc(F)cc2)c(C#N)s1` (stereo not drawn) [Example 10, N-{1-[5-((5-cyano-4-(4-fluorophenyl)thiazol-2-yl)(methyl)amino)-6-ethylimidazo[2,1-b][1,3,4]thiadiazol-2-yl}pyrrolidin-3-yl]-N-methylmethanesulfonamide], the IC50 in assay [1] and in assay [2] was 0.01 to 100 nM each time.
